Among the data in ChEMBL document CHEMBL1250518, “Nonsteroidal dissociated glucocorticoid agonists containing azaindoles as steroid A-ring mimetics” (J Med Chem, 2010) are IC50 and EC50 values, retold here.

Assay [1] addresses T1, Glucocorticoid receptor (Homo sapiens, UniProt P04150).
T1 sequence (P04150 whole entry): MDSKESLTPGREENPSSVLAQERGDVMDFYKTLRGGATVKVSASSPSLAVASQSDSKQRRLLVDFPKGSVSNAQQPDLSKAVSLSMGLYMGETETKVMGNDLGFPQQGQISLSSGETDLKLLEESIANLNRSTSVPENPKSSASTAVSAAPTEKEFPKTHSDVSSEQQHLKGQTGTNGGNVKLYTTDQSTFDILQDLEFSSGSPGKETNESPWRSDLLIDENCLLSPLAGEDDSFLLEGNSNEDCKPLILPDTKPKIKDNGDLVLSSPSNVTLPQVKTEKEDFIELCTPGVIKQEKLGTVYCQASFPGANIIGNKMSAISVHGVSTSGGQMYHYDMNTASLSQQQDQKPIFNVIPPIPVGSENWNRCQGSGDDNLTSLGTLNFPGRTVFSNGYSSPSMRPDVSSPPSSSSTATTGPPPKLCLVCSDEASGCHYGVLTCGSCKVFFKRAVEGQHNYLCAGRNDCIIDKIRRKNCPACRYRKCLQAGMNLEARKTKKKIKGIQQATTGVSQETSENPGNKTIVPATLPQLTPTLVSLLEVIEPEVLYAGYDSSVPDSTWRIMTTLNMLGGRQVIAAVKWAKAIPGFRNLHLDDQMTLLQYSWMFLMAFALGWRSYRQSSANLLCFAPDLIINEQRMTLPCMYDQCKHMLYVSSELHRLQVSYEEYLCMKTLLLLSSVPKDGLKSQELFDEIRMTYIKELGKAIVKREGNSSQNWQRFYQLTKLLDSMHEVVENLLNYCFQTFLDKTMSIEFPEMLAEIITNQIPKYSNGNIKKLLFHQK
Kind of assay: Binding affinity to glucocorticoid receptor expressed in baculovirus-infected insect cells using tetramethylrhodamine labeled Dexamethasone by fluorescence polarization microplate assay. (Polarisation of emitted light reports the rotation of a fluorescent probe.)

A further assay has as its target T2, Progesterone receptor (Homo sapiens, UniProt P06401).
T2 sequence (P06401 whole entry): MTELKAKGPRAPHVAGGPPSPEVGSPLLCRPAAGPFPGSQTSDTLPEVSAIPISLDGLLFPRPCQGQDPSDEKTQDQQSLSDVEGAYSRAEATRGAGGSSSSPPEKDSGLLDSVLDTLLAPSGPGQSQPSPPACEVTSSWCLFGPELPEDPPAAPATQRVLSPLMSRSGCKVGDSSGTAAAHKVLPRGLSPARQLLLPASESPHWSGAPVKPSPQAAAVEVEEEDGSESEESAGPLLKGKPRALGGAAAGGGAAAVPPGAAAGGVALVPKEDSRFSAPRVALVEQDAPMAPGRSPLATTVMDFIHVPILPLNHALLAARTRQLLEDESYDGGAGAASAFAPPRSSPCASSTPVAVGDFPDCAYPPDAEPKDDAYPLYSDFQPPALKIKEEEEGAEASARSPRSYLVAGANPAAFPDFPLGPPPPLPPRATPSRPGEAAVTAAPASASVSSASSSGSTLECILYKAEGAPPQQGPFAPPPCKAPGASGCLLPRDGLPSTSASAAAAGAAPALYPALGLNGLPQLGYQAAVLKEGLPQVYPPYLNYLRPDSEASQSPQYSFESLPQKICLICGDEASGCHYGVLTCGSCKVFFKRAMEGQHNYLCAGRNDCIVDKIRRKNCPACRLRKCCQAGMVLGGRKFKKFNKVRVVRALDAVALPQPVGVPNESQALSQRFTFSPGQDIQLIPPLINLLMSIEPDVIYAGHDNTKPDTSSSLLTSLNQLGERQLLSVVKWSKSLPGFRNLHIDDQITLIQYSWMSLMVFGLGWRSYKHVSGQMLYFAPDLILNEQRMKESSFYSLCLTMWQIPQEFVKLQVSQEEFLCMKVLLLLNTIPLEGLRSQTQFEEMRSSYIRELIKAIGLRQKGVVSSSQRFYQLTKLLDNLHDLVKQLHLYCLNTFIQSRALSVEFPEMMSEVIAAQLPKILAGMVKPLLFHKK
Kind of assay: Binding affinity to progesterone receptor expressed in baculovirus-infected insect cells using tetramethylrhodamine labeled RU-486 by fluorescence polarization microplate assay.

Assay [2] concerns the target T3, Mineralocorticoid receptor (Homo sapiens, UniProt P08235).
T3 sequence (P08235 whole entry): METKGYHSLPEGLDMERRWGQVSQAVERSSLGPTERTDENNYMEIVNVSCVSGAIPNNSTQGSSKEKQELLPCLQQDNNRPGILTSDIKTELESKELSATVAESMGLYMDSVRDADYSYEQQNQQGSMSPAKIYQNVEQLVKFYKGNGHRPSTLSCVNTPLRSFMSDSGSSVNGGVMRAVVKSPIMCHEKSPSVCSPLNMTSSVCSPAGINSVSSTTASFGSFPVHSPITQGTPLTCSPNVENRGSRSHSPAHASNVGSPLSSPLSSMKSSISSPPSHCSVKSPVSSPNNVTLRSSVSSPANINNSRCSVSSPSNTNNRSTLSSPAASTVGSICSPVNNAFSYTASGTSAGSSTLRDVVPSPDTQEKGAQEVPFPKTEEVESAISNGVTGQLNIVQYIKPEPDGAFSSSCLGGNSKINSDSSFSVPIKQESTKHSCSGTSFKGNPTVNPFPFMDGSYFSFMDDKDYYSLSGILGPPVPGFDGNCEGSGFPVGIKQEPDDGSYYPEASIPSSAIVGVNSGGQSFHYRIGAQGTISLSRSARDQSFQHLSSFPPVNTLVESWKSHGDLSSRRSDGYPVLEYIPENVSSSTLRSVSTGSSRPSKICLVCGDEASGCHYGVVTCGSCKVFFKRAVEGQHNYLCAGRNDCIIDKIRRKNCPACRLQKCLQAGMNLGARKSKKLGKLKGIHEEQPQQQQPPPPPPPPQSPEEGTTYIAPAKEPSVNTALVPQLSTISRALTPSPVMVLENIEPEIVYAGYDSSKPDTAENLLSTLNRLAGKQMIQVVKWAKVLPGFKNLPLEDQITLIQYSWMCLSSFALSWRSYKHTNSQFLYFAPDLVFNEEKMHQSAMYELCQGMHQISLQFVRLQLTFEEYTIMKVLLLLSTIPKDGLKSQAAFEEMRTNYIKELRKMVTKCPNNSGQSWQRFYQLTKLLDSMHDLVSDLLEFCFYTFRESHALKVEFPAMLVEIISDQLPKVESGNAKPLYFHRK
Description: Binding affinity to mineralocorticoid receptor expressed in baculovirus-infected insect cells using tetramethylrhodamine labeled Dexamethasone by fluorescence polarization microplate assay.

Assay [3] deals with T1, Glucocorticoid receptor. Description: Transrepression activity at glucocorticoid receptor in HFF assessed as inhibition of IL-1-induced IL-6 production after 18 to 24 hrs by ELISA. Format: cell-based. For orientation: An ELISA detects its analyte on a solid surface through an enzyme-linked reagent.
For assay [4], the target named is T1, Glucocorticoid receptor. Kind of assay: Transactivation activity at glucocorticoid receptor in HFF assessed as induction of aromatase activity after 18 to 24 hrs by ELISA. In kind it is cell-based.
For assay [5], the target named is T1, Glucocorticoid receptor. Description: Transactivation activity at glucocorticoid receptor in human HeLa cells transfected with luciferase gene linked to MMTV promoter by luciferase assay. Format: cell-based.

Broadly, the IC50 is the point on the concentration scale where inhibition reaches its midpoint. What is called EC50 is the concentration needed to bring the measured effect to its halfway point. As for `COc1ccc(-c2ccccc2)cc1C(C)(C)CC(O)(Cc1cc2ccncc2[nH]1)C(F)(F)F` (stereo not drawn), the 50% inhibitory concentration (IC50) at Glucocorticoid receptor [1] was 12 nM; on Progesterone receptor, 1200 nM; in assay [2], 480 nM; at Glucocorticoid receptor [3], 40 nM. Further, on Glucocorticoid receptor [4], the 50% effective concentration (EC50) worked out at 69 nM.
`COc1ccc(F)cc1C(C)(C)CC(O)(Cc1cc2ccncc2[nH]1)C(F)(F)F` (stereo not drawn): the IC50 on Glucocorticoid receptor [1] is 4.4 nM; on Progesterone receptor it was greater than 2000 nM; in assay [2] it was 580 nM; at Glucocorticoid receptor [3] it was 9.8 nM.
As for `CC(C)(C[C@@](O)(Cc1cc2cnccc2[nH]1)C(F)(F)F)c1cc(F)ccc1O`, the concentration for half-maximal inhibition (IC50) was found to be 4.7 nM on Glucocorticoid receptor [1]; 1900 nM on Progesterone receptor; 220 nM in assay [2]; 3 nM at Glucocorticoid receptor [3]; 56 nM against Glucocorticoid receptor [5]. Also, on Glucocorticoid receptor [4], the EC50 was found to be 45 nM.
Take `CC(C)(CC(O)(Cc1cc2ccncc2[nH]1)C(F)(F)F)c1cccc2c1OCC2` (stereo not drawn): the half-inhibitory concentration (IC50) is 4.5 nM on Glucocorticoid receptor [1]; 130 nM at Progesterone receptor; 780 nM in assay [2]; 15 nM at Glucocorticoid receptor [3]; greater than 2000 nM at Glucocorticoid receptor [5]. At Glucocorticoid receptor [4], the concentration for a half-maximal effect (EC50) worked out at 30 nM.
As for `CC(C)(CC(O)(Cc1cc2ccncc2[nH]1)C(F)(F)F)c1cc(Cl)cc2c1OCC2` (stereo not drawn), the 50% inhibitory concentration (IC50) on Glucocorticoid receptor [1] was 7 nM; at Progesterone receptor it was 1210 nM; in assay [2], 540 nM; on Glucocorticoid receptor [3], 17 nM; against Glucocorticoid receptor [5], greater than 2000 nM. The EC50 at Glucocorticoid receptor [4] was 120 nM.
Consider `COc1ccc(F)cc1C(C)(C)CC(O)(Cc1cc2cccnc2[nH]1)C(F)(F)F` (stereo not drawn), for which the IC50 at Glucocorticoid receptor [1] was 21 nM; on Progesterone receptor it was greater than 2000 nM; in assay [2], 910 nM; on Glucocorticoid receptor [3], greater than 2000 nM.
Turning to `COc1ccc(F)cc1C(C)(C)CC(O)(Cn1ccc2ncccc21)C(F)(F)F` (stereo not drawn), the IC50 on Glucocorticoid receptor [1] came to 2 nM; on Progesterone receptor it was 200 nM; in assay [2], 48 nM; on Glucocorticoid receptor [3] it was 2.8 nM.
The matching figures for `COc1ccc(F)cc1C(C)(C)CC(O)(Cc1cc2ncccc2[nH]1)C(F)(F)F` (stereo not drawn): 23 nM, greater than 2000 nM, greater than 2000 nM and 120 nM.
On to `COc1ccc(F)cc1C(C)(C)CC(O)(Cc1cc2cc[n+]([O-])cc2[nH]1)C(F)(F)F` (stereo not drawn), for which the concentration for half-maximal inhibition (IC50) was 860 nM at Glucocorticoid receptor [1], greater than 2000 nM on Progesterone receptor and greater than 2000 nM in assay [2].
On to `COc1ccc(F)cc1C(C)(C)CC(O)(Cc1cc2ccccc2[nH]1)C(F)(F)F` (stereo not drawn), for which the IC50 on Glucocorticoid receptor [1] stood at 21 nM; on Progesterone receptor, 250 nM; in assay [2], 380 nM; at Glucocorticoid receptor [3] it was 6.6 nM.
As for `CC(C)(CC(O)(Cc1cc2ccncc2[nH]1)C(F)(F)F)c1cc(-c2cncnc2)ccc1O` (stereo not drawn), the IC50 on Glucocorticoid receptor [1] is 19 nM; on Progesterone receptor, greater than 2000 nM; in assay [2], 1700 nM; on Glucocorticoid receptor [3], 21 nM.
On to `COc1ccc(F)cc1C(C)(C)CC(O)(Cc1cc2ccncc2o1)C(F)(F)F` (stereo not drawn), for which the IC50 on Glucocorticoid receptor [1] was 22 nM; at Progesterone receptor, greater than 2000 nM; in assay [2] it was 1050 nM; on Glucocorticoid receptor [3], greater than 2000 nM.
On to `COc1ccc(F)cc1C(C)(C)CC(O)(Cn1ccc2ccncc21)C(F)(F)F` (stereo not drawn), for which the values for the IC50 (on Glucocorticoid receptor [1]; at Progesterone receptor; in assay [2]) were 1400 nM, greater than 2000 nM and greater than 2000 nM, respectively.
On to `COc1ccc(-c2cccnc2)cc1C(C)(C)CC(O)(Cc1cc2ccncc2[nH]1)C(F)(F)F` (stereo not drawn), for which the half-maximal inhibitory concentration (IC50) was 8 nM at Glucocorticoid receptor [1], greater than 2000 nM on Progesterone receptor, 390 nM in assay [2] and 30 nM on Glucocorticoid receptor [3]. The concentration for a half-maximal effect (EC50) on Glucocorticoid receptor [4] is greater than 2000 nM.
In the case of `COc1ccc(-c2cncnc2)cc1C(C)(C)CC(O)(Cc1cc2ccncc2[nH]1)C(F)(F)F` (stereo not drawn), the IC50 was 27 nM at Glucocorticoid receptor [1], greater than 2000 nM at Progesterone receptor, greater than 2000 nM in assay [2] and 50 nM at Glucocorticoid receptor [3].
With `COc1ccc(F)cc1C(C)(C)CC(O)(Cc1cc2ccncc2s1)C(F)(F)F` (stereo not drawn), the IC50 on Glucocorticoid receptor [1] stood at 7.1 nM; at Progesterone receptor, 1300 nM; in assay [2] it was 220 nM; at Glucocorticoid receptor [3], 35 nM.
The matching figures for `COc1ccc(F)cc1C(C)(C)CC(O)(Cc1cc2ccccn2n1)C(F)(F)F` (stereo not drawn): 690 nM, greater than 2000 nM, greater than 2000 nM and greater than 2000 nM.
`COc1ccc(F)cc1C(C)(C)CC(O)(Cc1cc2cnccc2[nH]1)C(F)(F)F` (stereo not drawn): the half-maximal inhibitory concentration (IC50) is 7.3 nM on Glucocorticoid receptor [1], greater than 2000 nM at Progesterone receptor, 320 nM in assay [2] and 8.2 nM on Glucocorticoid receptor [3].
The matching figures for `COc1ccc(F)cc1C(C)(C)C[C@](O)(Cc1cc2ccncc2[nH]1)C(F)(F)F`: 1700 nM, greater than 2000 nM, greater than 2000 nM and 430 nM.
Take `CC(C)(CC(O)(Cc1cc2ccncc2[nH]1)C(F)(F)F)c1cc(F)cc2c1OCC2` (stereo not drawn): the concentration for half-maximal inhibition (IC50) at Glucocorticoid receptor [1] was 2.3 nM; at Progesterone receptor it was 450 nM; in assay [2] it was 280 nM; at Glucocorticoid receptor [3], 9.3 nM; on Glucocorticoid receptor [5], greater than 2000 nM.
As for `C[C@@H]1C[C@H]2[C@@H]3CCC4=CC(=O)C=C[C@]4(C)[C@@]3(F)[C@@H](O)C[C@]2(C)[C@@]1(O)C(=O)CO` [DEXAMETHASONE], the IC50 at Progesterone receptor is greater than 2000 nM.
In the case of `CC(C)(CC(O)(Cc1cc2ccncc2[nH]1)C(F)(F)F)c1cc(-c2cccnc2)ccc1O` (stereo not drawn), the IC50 was 6.6 nM on Glucocorticoid receptor [1]; greater than 2000 nM at Progesterone receptor; 230 nM in assay [2]; 23 nM at Glucocorticoid receptor [3]; greater than 2000 nM at Glucocorticoid receptor [5].
Regarding `CC(C)(CC(O)(Cc1cc2ccncc2[nH]1)C(F)(F)F)c1cccc(F)c1` (stereo not drawn), the IC50 at Glucocorticoid receptor [1] was 23 nM; at Progesterone receptor, 8 nM; in assay [2] it was greater than 2000 nM; at Glucocorticoid receptor [3] it was 99 nM. For the same compound, at Glucocorticoid receptor [4], the EC50 is greater than 2000 nM.
